Here are results for two compounds from patent US5328900A, “Anti-thrombotic peptide and pseudopeptide derivatives” (Rhone-Poulenc Rorer Pharmaceuticals Inc., priority 1992, dated 1994).

The target of assay [1] is T1, fibrinogen binding to thrombin-stimulated platelets (Homo sapiens, UniProt P05106+P08514).
T1 construct: endogenous in cells; host or cells: washed platelets stimulated with human alpha-thrombin
As to the kind of experiment: Inhibition of radiolabeled (125I) fibrinogen binding assay. The procedure:
I. Inhibition of Radiolabeled (^125 I) Fibrinogen Binding Assay, which is essentially based on the method described in Proc. Natl. Acad. Sci. USA Vol. 83, pp. 5708-5712, August 1986, and is as follows.
Platelets are washed free of plasma constituents by the albumin density-gradient technique. In each experimental mixture platelets in modified Tyrode's buffer are stimulated with human α-thrombin at 22°-25° C. for 10 minutes (3.125×10" platelets per liter and thrombin at […]). Hirudin is then added at a 25-fold excess for 5 minutes before addition of the radiolabeled ligand and any competing ligand. After these additions, the final platelet count in the mixture is 1×10"/liter. After incubation for an additional 30 minutes at 22°-25° C., bound and free ligand are separated by centrifuging 50 μl of the mixture through 300 μl of 20% sucrose at 12,000×g for 4 minutes. The platelet pellet is then separated from the rest of the mixture to determine platelet-bound radioactivity. Nonspecific binding is measured in mixtures containing an excess of unlabeled ligand. When binding curves are analyzed by Scatchard analysis, nonspecific binding is derived as a fitted parameter from the binding isotherm by means of a computerized program. […]

In the next assay the test system is Human platelets. The assay can be described thus: Inhibition of fibrinogen-mediated platelet aggregation. It is filed as cell-based. Conditions: for IC50: thrombin-activated human platelets, rate of aggregation. The procedure: II. Inhibition of Fibrinogen-Mediated Platelet Aggregation, which is essentially based on the method described in Blood, Vol. 66, No. 4, October 1985, pp. 946-952, and is as follows.
Human platelets were isolated from freshly drawn whole blood and were suspended in 0.14 mol/L NaCl, 2.7 mmol/L […], 12 mmol/L NaHCO3, 0.42 mmol/L Na2 HPO4, 0.55 mmol/L glucose, and 5 mmol/L Hepes, pH 7.35 at 2×10^8 platelets/ml. The suspension was incubated at 37° C. An aliquot of 0.4 ml of platelet suspension was activated by human thrombin at a final concentration of 2 μg/ml of thrombin for one minute. After one minute the reaction was stopped by a thrombin inhibitor. Serial dilution of the compound being tested was then added to the activated platelet, the reaction was allowed to proceed for one minute, followed by the addition of human fibrinogen at a final concentration of […] of fibrinogen. Platelet aggregation was then recorded by an aggregometer. Rate of aggregation was used to calculate IC50.

Molecules are shown by their SMILES. Where a SMILES comes first, the peptide text is derived from it. [ ]: non-standard residue; d: D form. Aze = O=C(O)[C@@H]1CCN1; Inp = O=C(O)C1CCNCC1 Where only a bound is given, the exact number is not on record here.

T1 sequence (P08514 32-887 limits assumed): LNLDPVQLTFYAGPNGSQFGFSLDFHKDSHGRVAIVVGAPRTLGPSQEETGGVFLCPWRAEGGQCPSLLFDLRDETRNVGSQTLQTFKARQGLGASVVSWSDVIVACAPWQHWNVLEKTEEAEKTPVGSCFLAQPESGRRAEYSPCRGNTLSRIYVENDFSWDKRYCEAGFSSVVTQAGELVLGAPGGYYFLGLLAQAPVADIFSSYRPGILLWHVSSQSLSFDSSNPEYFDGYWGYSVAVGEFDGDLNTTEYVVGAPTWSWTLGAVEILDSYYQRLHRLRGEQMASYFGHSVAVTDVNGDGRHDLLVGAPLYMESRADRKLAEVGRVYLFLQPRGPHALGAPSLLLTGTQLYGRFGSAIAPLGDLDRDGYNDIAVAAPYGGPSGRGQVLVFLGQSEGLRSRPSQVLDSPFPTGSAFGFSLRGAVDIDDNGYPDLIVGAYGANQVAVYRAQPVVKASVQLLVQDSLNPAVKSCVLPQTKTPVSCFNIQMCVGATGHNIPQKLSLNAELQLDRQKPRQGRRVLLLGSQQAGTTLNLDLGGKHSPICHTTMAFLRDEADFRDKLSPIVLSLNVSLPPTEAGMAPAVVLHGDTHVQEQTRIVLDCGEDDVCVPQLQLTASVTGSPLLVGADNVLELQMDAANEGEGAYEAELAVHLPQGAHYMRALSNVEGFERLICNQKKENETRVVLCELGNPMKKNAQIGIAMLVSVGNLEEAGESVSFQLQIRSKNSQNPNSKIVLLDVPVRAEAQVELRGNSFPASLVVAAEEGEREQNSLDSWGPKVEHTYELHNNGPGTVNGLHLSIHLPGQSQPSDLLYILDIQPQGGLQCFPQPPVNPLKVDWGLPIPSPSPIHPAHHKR
T1 sequence (P08514 891-1039 partner limits assumed): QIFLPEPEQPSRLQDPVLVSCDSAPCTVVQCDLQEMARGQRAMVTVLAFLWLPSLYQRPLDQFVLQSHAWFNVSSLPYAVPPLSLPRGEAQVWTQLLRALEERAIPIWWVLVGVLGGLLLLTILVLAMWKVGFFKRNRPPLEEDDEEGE
T1 sequence (P05106 27-788): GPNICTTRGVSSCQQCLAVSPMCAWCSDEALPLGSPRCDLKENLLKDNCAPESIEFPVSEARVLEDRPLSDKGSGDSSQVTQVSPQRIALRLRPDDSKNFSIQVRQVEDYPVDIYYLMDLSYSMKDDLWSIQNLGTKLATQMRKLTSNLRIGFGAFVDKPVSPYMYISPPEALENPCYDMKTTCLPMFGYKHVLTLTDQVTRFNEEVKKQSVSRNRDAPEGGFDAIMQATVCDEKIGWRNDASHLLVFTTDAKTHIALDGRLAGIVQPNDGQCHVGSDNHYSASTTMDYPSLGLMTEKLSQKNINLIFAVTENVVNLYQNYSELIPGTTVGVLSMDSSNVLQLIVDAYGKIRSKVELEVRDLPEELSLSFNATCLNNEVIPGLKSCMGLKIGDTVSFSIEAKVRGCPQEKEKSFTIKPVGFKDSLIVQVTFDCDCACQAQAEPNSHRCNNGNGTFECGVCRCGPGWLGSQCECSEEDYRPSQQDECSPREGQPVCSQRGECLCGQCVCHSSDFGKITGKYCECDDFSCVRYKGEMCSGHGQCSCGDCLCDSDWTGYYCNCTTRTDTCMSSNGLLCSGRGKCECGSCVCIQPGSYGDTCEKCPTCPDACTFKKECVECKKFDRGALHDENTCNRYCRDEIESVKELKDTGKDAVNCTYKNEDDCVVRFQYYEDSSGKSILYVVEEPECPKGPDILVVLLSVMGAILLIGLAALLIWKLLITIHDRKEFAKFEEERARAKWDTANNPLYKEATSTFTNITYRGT

Consider `CC(C)[C@H](NC(=O)[C@H](CC(=O)O)NC(=O)[C@@H]1CCN1C(=O)C1CCN(C(=N)N)CC1)C(=O)O` [N-[2(S)-1-(amidinopiperidin-4-yl-carbonyl)-azetidin-2-yl-carbonyl]-L-aspartyl-L-valine], for which the “Inhibition of 125I-fibrinogen binding, extent at 25 μM” value in assay [1] (25 μM) stood at 15%. Also, in the assay on Human platelets, the “Inhibition of Fibrinogen Mediated Platelet Aggregation % inhibition at 25 μM” value came to 15% and the IC50 (commonly the concentration that gives 50% inhibition) is more than 200 µM.

Consider `CC(C)[C@H](NC(=O)[C@H](CC(=O)O)NC(=O)[C@@H]1CCN1C(=O)C1CCNCC1)C(=O)O` [N-[2(S)-1-(piperidin-4-yl-carbonyl)azetidin-2-yl-carbonyl]-L-aspartyl-L-valine] (H-[Inp][Aze]DV-OH), for which the 50% inhibitory concentration (IC50) in assay [1] (thrombin-stimulated washed platelets, 125I-fibrinogen 0.176 μmol/liter) is more than 64 µM; with Human platelets it was 29.6 µM. Moreover, in the assay with Human platelets, the “Inhibition of Fibrinogen Mediated Platelet Aggregation % inhibition at 25 μM” value came to 47%.
